The conditions of data set [1]: n-octanol/PBS; cited from earlier work.
The test system of the next data set is mouse plasma proteins. As to the kind of experiment: Ultrafiltration assay, binding to mouse plasma proteins. It counts as in vitro ADME. To be noted: 37 °C, 30 min. As for the experimental part: (§1) In short, the PSMA ligands were labeled with ^177Lu at a molar activity of 50 MBq/nmol, diluted in PBS (pH 7.4) to an activity concentration of 10 MBq/500 μL and incubated in mouse or human plasma at 37 °C for 30 min. After incubation, each sample was loaded on a centifree ultrafiltration device (4104 centrifugal filter units; Millipore, 30000 Da nominal molecular weight limit, methylcellulose micropartition membranes) and centrifuged at 2000 rpm for 40 min at 20 °C to allow the separation of the unbound and plasma-bound radioligand fractions. Samples from the loading solution and samples from the filtrate were taken and counted for radioactivity in a γ-counter. The amount of plasma-bound radioligand was calculated as the fraction of radioactivity measured […] relative to the corresponding loading solution (set to 100%). Control experiments were performed with each radioligand by incubation in PBS (pH 7.4) prior to filtration in order to determine the unspecific binding of the radioligands to the filter membrane. The experiments were performed at least three times for each radioligand. A one-way ANOVA with a Tukeys's multiple comparison post-test was used for statistical analysis in GraphPad Prism software (version 7). A p-value of <0.05 was considered statistically significant.

The test system of data set [2] is PC-3 PIP/flu tumor-bearing mice. Details: method as in Benešová et al. 2018 [1]; AUC value PC-3 PIP tumor / AUC value Blood / AUC value Kidneys / AUC value Liver / AUC value Salivary glands: concentration or dose not given beside the values. To be noted: previously published, ref Benešová et al. 2018 [1], cited from earlier work.
Data set [3] can be described thus: Radiolytic stability at high activity concentration (HPLC). To be noted: 24 h, saline with L-ascorbic acid (3 mg), 250 MBq/500 μL, room temperature. In kind it is physicochemical. The method, then:
The radiolytic stability of the PSMA radioligands (50 MBq/nmol) was determined at a high activity concentration (250 MBq/500 μL saline) over a period of 24 h in the absence or presence of L-ascorbic acid (3 mg). The samples were kept at room temperature and aliquots were taken 1 h, 4 h and 24 h after labeling in order to determine the amount of intact radioligand using HPLC as previously reported (Supplementary Material), [29].
Methods: Radioly tic stability of each PSMA radioligand was assessed over a period of 24 h. For this purpose, Ibu-PSMA, Ibu-Dα-PSMA, Ibu-N-PSMA and Ibu-DAB-PSMA were labeled with 177Lu in a volume of 120 µL at a molar activity of 50 MBq/nmol. After quality control using HPLC (t = 0, radiochemical purity ≥ 96%), the labeling solutions were diluted with saline to 250 MBq/500 µL and radioligand integrity was determined for each radioligand with and without addition of L-ascorbic acid (3 mg). The radioligand dilutions were incubated at room temperature and radioligand degradation was determined by HPLC after 1 h, 4 h and 24 h incubation time as previously reported. The HPLC chromatograms were analyzed by integration of the peaks representing the radiolabeled product, the released 177Lu as well as degradation products of unknown structure (Figure S3). […]

Data set [4] deals with non-tumor-bearing athymic BALB/c nude mice. As to the kind of experiment: In vivo excretion, whole-body activity measurement. Set-up: species or system mouse. As to conditions: 4 h p.i.; activity right after injection = 100%. The method, then:
14. Determination of the in vivo excretion of the radioligands
Methods: In order to determine the retention and excretion of each radioligand, non-tumor-bearing athymic BALB/c nude mice were injected with each radioligand (n = 2−3; per radioligand). The mice were measured for radioactivity immediately after injection and at several time points after injection up to 56 h p.i. (Figure S8). The PSMA ligands were, therefore, labeled at a molar activity of 25 MBq/nmol and diluted in saline containing 0.05% bovine serum albumin (BSA). Mice were intravenously injected with the respective radioligand (25 MBq, 1 nmol, 100 µL) and – after e mptying the urinary bladder – measured in a dose calibrator immediately (t = 0) and at various time points after injection up to 56 h p.i..
The activity measured right after injection was set as 100%. The data points present the average of three mice per radioligand ± standard deviation (SD). […]
to the albumin-binding properties of the incorporated ibuprofen. The ibuprofen-bearing radioligands […]
p-tolyl moiety as stronger albumin binder. […]
excretion patterns for the single radioligands, which was manifested most prominently between 1 h and 4 h p.i. At all measured time points, retention was highest for the radioligand without additional linker entity, 177Lu-Ibu-PSMA. […]
Figure S8. […] The activity measured right after injection was set as 100%. […]

The target of another data set is T1, PSMA (Homo sapiens, UniProt Q04609).
T1 construct: expressed in transfected cells; host or cells: PC-3 PIP (PSMA-transfected subline of human PC-3 prostate cancer cells), provided by Prof; Martin Pomper
Put plainly: Determination of KD values (saturation binding on PC-3 PIP tumor cells). To be noted: 30 min at 4 °C, 2-PMPA block for non-specific binding. As for the experimental part: The KD values, indicating the PSMA-binding affinity of the radioligands, were determined using PC-3 PIP tumor cells. The cells were seeded in 48-well-plates (8 x 10^4 cells in 500 µL RPMI medium/well) allowing adhesion and growth overnight. During the experiment, well plates were kept on ice. After removal of the supernatant, the cells were washed once with ice-cold PBS (pH 7.4) before addition of different concentrations (1‒2000 nM) of the radiolabeled PSMA ligands (5 MBq/nmol) in ice-cold RPMI medium without supplements. Some of the PC-3 PIP tumor cell samples were co-incubated with 2-phosphonomethyl pentanedioic acid (2-PMPA, 200 μM) to block PSMA enabling the determination of non-specific binding. After incubation of the well-plates for 30 min at 4 °C, the supernatants were removed and the cells washed twice with ice-cold PBS. The cells were lysed (NaOH, 1 M, 600 µL) and transferred to 4 mL tubes for counting the activity in a γ-counter (Wallac Wizard 1480, Perkin Elmer). The KD values were determined by plotting specific binding (total binding minus unspecific binding determined with blocking agent) against the molar concentration of the added radioligands. […] Statistical significance was assessed using a one-way ANOVA with a Tukeys's multiple comparison post-test in GraphPad Prism software (version 7). […]

A further data set relates to human plasma proteins. Put plainly: Ultrafiltration assay, binding to human plasma proteins. It counts as in vitro ADME. As to conditions: 37 °C, 30 min. The method, then: as §1

Broadly, the Kd is the free concentration of one partner at which half of the binding sites on the other are occupied at equilibrium, for simple one-to-one binding.

T1 sequence (Q04609 whole entry): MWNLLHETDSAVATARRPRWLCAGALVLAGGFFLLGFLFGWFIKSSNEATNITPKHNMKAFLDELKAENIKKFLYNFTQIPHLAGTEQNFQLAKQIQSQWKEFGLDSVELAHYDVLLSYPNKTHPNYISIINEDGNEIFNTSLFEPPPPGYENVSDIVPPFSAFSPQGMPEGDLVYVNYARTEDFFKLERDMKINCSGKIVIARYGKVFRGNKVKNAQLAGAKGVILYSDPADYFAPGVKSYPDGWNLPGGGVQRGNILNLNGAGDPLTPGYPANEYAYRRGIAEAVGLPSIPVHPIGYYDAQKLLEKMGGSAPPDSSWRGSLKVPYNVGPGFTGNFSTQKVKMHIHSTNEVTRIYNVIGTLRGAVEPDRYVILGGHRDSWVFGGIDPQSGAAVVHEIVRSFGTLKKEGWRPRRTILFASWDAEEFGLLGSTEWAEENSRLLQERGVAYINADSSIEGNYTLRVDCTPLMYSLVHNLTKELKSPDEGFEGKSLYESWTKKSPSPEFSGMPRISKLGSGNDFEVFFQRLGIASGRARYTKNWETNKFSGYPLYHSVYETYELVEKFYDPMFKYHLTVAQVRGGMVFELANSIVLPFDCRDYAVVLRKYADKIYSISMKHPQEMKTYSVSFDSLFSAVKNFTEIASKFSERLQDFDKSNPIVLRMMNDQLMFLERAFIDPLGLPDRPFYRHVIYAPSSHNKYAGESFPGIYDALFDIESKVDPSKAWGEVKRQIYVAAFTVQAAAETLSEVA

Turning to `O=C([O-])CN1CCN(CC(=O)[O-])CCN(CC(=O)NCC2CCC(C(=O)N[C@@H](Cc3ccc4ccccc4c3)C(=O)NCCCC[C@H](NC(=O)N[C@@H](CCC(=O)O)C(=O)O)C(=O)O)CC2)CCN(CC(=O)[O-])CC1.[177Lu+3]` (stereo partly drawn) [^177Lu-PSMA-617], in data set [1], the logD value is -4.4 ± 0.2. Moreover, the “binding to mouse plasma proteins (bound fraction)” value in the data set with mouse plasma proteins amounted to 6.0 ± 2%. In addition, in data set [2] (non-decay-corrected data), the “AUC value Blood” value was 52 ± 2 % IA/g*h, the “AUC value Kidneys” value was 99 ± 11 % IA/g*h, the “AUC value Liver” value is listed as 6.2 ± 1.6 % IA/g*h and the “AUC value PC-3 PIP tumor” value is recorded as 3691 ± 156 % IA/g*h. The “AUC value Salivary glands” value in data set [2] (non-decay-corrected data) is 0.5 ± 0.2 % IA/g*h. In data set [2] (tumor-to-blood), the “Ratio of AUC values AUCTu-to-AUCBl” value is reported as 71 ± 6. The “Ratio of AUC values AUCTu-to-AUCKi” value in data set [2] (tumor-to-kidney) was 37 ± 6. For the same molecule, in data set [2] (tumor-to-liver), the “Ratio of AUC values AUCTu-to-AUCLi” value was 592 ± 179. Besides, in data set [2] (tumor-to-salivary gland), the “Ratio of AUC values AUCTu-to-AUCSG” value is reported as 7382 ± 3265. In data set [3], the intact radioligand entry was “over 91%”. Further, in data set [4], the “body retention of activity” value was found to be 3.2%. The molecule also registered a Kd on PSMA of 13 ± 1 nM. For the same molecule, the “binding to human plasma proteins (bound fraction)” value with human plasma proteins is reported as 59 ± 1%.
